The supplement of paper PMC13207355

Tests used:
Conditions in all cases: exposure time: 72 h
[1] = test system: FT3469 (normal neural stem cell line); test: surviving fraction (nuclei count normalised to DMSO); higher = more cells surviving (less toxic)
[2] = test system: E28 (patient-derived glioblastoma stem cells of classical subtype); test: as above
[3] = test system: E57 (patient-derived glioblastoma stem cells of mesenchymal subtype); test: as above
[4] = test system: E21 (patient-derived glioblastoma stem cells of mesenchymal subtype); test: as above
[5] = test system: E34 (patient-derived glioblastoma stem cells of proneural subtype); test: as above
[6] = test system: E31 (patient-derived glioblastoma stem cells of proneural subtype); test: as above
[7] = test system: E13 (patient-derived glioblastoma stem cells of classical subtype); test: as above
[8] = test system: FT3469; test: phenotypic distance (Euclidean, principal components) from DMSO controls (arbitrary units); higher = stronger morphological change
[9] = test system: E28; test: as above
[10] = test system: E57; test: as above
[11] = test system: E21; test: as above
[12] = test system: E34; test: as above
[13] = test system: E31; test: as above
[14] = test system: E13; test: as above
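For phenotypic distance (Euclidean, principal components) from DMSO controls in this document: cell Painting imaging in 384-well plates, CellProfiler features reduced to at least 20 principal components, Euclidean distance versus same-plate DMSO vehicle wells (0.1% v/v), median over six images per well.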
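For surviving fraction (nuclei count normalised to DMSO) in this document: nuclei counted by high-content imaging of Hoechst-stained cells in laminin-coated 384-well plates, relative to 0.1% DMSO vehicle wells, with staurosporine as cell-death control.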

OCCN1CCN(CCCN2c3ccccc3Sc3ccc(Cl)cc32)CC1 [Perphenazine]
Conditions | phenotypic distance | surviving fraction
[1], 4.1 nM | – | 1.11
[1], 12.3 nM | – | 0.955
[1], 37 nM | – | 1.01
[1], 111.1 nM | – | 1.04
[1], 333.3 nM | – | 0.866
[1], 1000 nM | – | 0.938
[1], 3000 nM | – | 1.03
[2], 4.1 nM | – | 1.09
[2], 12.3 nM | – | 1.12
[2], 37 nM | – | 1.07
[2], 111.1 nM | – | 1.19
[2], 333.3 nM | – | 0.953
[2], 1000 nM | – | 1.09
[2], 3000 nM | – | 0.848
[3], 4.1 nM | – | 0.964
[3], 12.3 nM | – | 0.957
[3], 37 nM | – | 1
[3], 111.1 nM | – | 1.1
[3], 333.3 nM | – | 1.15
[3], 1000 nM | – | 1.12
[3], 3000 nM | – | 1.13
[4], 4.1 nM | – | 0.925
[4], 12.3 nM | – | 1.06
[4], 37 nM | – | 1.03
[4], 111.1 nM | – | 1.05
[4], 333.3 nM | – | 1.11
[4], 1000 nM | – | 0.954
[4], 3000 nM | – | 0.73
[5], 4.1 nM | – | 0.951
[5], 12.3 nM | – | 1.05
[5], 37 nM | – | 1.1
[5], 111.1 nM | – | 1.05
[5], 333.3 nM | – | 0.994
[5], 1000 nM | – | 1.19
[5], 3000 nM | – | 0.986
[6], 4.1 nM | – | 0.97
[6], 12.3 nM | – | 1.07
[6], 37 nM | – | 1.08
[6], 111.1 nM | – | 1.14
[6], 333.3 nM | – | 1.18
[6], 1000 nM | – | 1.24
[6], 3000 nM | – | 0.912
[7], 4.1 nM | – | 0.93
[7], 12.3 nM | – | 0.94
[7], 37 nM | – | 0.849
[7], 111.1 nM | – | 0.98
[7], 333.3 nM | – | 0.964
[7], 1000 nM | – | 1.05
[7], 3000 nM | – | 0.837
[8], 4.1 nM | 0.72 | –
[8], 12.3 nM | 0.971 | –
[8], 37 nM | 0.546 | –
[8], 111.1 nM | 0.602 | –
[8], 333.3 nM | 0.84 | –
[8], 1000 nM | 0.79 | –
[8], 3000 nM | 1.58 | –
[9], 4.1 nM | 0.747 | –
[9], 12.3 nM | 0.879 | –
[9], 37 nM | 0.787 | –
[9], 111.1 nM | 0.725 | –
[9], 333.3 nM | 0.749 | –
[9], 1000 nM | 0.938 | –
[9], 3000 nM | 1.93 | –
[10], 4.1 nM | 1.04 | –
[10], 12.3 nM | 0.836 | –
[10], 37 nM | 0.782 | –
[10], 111.1 nM | 0.979 | –
[10], 333.3 nM | 0.789 | –
[10], 1000 nM | 1.66 | –
[10], 3000 nM | 2.41 | –
[11], 4.1 nM | 0.988 | –
[11], 12.3 nM | 0.761 | –
[11], 37 nM | 0.693 | –
[11], 111.1 nM | 1.08 | –
[11], 333.3 nM | 0.995 | –
[11], 1000 nM | 0.917 | –
[11], 3000 nM | 2.66 | –
[12], 4.1 nM | 1.05 | –
[12], 12.3 nM | 0.866 | –
[12], 37 nM | 0.902 | –
[12], 111.1 nM | 2.15 | –
[12], 333.3 nM | 1.04 | –
[12], 1000 nM | 1.51 | –
[12], 3000 nM | 1.42 | –
[13], 4.1 nM | 1.23 | –
[13], 12.3 nM | 0.866 | –
[13], 37 nM | 0.873 | –
[13], 111.1 nM | 1.86 | –
[13], 333.3 nM | 1.75 | –
[13], 1000 nM | 2.15 | –
[13], 3000 nM | 3.18 | –
[14], 4.1 nM | 2.64 | –
[14], 12.3 nM | 2.33 | –
[14], 37 nM | 3.22 | –
[14], 111.1 nM | 0.78 | –
[14], 333.3 nM | 1.14 | –
[14], 1000 nM | 3.07 | –
[14], 3000 nM | 3.61 | –
